Results reported in patent US5242945A, “Tetronic and thiotetronic acid derivatives as phospholipase A2 inhibitors” (American Home Products Corporation, priority 1991, dated 1993).

Key:
carrageenan paw edema = experiment: rat carrageenan paw edema assay; format: in vivo, rat (Sprague-Dawley); conditions: 50 mg/kg peroral
Method: The compounds of the invention are further tested in the rat carrageenan paw edema assay to determine their ability to inhibit the acute inflammatory response.
140-180 g Male Sprague-Dawley rats, in groups of 6 animals are injected subcutaneously in the right paw with 0.1 mL of 1% carrageenan at zero time. Mercury plethysmographic readings (mL) of the paw are made at zero time and 3 hours later. Test compounds are suspended or dissolved in 0.5% methylcellulose and given perorally 1 hour prior to carrageenan administration.
The increase in paw volume (edema in mL) produced by the carrageenan is measured. Paw edema is calculated (3 hour volume minus zero time volume), and percent inhibition of edema is determined. Unpaired Student's t-test is used to determine statistical significance.

human platelet PLA2 = target: T1, human platelet PLA2 (Homo sapiens, UniProt P14555); experiment: in vitro isolated phospholipase A2 assay, human platelet PLA2; format: biochemical; conditions: at 10 μM; + values given without explanation; read-out: % Inhibition HP (human platelet)
T1 construct: platelet acid extract PLA2; from tissue; host or cells: human platelets, semipurified acid extract
T1 sequence (P14555 21-144): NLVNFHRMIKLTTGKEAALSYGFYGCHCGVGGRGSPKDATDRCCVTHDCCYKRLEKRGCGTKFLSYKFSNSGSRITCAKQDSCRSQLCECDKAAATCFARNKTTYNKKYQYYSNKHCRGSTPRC
Outline: (§1)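 PLA2 from semipurified human platelet acid extract or purified human synovial fluid, preincubated 30 min at room temperature with compound. ³H-arachidonate-labelled E. coli substrate then added in Tris-HCl pH 7.5, with enzyme giving about 12% hydrolysis. Reaction ran 10 min at 37° C; released arachidonic acid recovered on NH2 columns and measured by β-counting.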

[1] = target: T2, human synovial fluid PLA2 (Homo sapiens, UniProt P14555); experiment: in vitro isolated phospholipase A2 assay, human synovial fluid PLA2; format: biochemical
T2 construct: Purified human synovial fluid; from tissue; host or cells: human synovial fluid
T2 sequence (P14555 21-144): T1 sequence (P14555 21-144)
Outline: as §1

[2] = test system: lipoxygenase and/or cyclooxygenase pathways of arachidonic acid metabolism; experiment: in vivo murine zymosan peritonitis assay; set-up: species or system mouse (CD-1); conditions: p.o.
Method: The compounds of the invention are evaluated for their ability to inhibit the lipoxygenase and/or cyclooxygenase pathways of arachidonic acid metabolism in the in vivo murine zymosan peritonitis assay.
Male CD-1 mice (8 weeks old) are placed in plastic boxes in groups of six. Animals are injected with 1 mL i.p. of either 1% zymosan in pyrogen free 0.9% saline or saline (unstimulated control). Compounds are dosed orally 1 hour prior to zymosan injection. Twenty minutes after zymosan injection, the mice are asphyxiated by CO2 inhalation and the peritoneal cavity is lavaged with 2 mL ice cold Hanks Balanced Salt Solution (HBSS) without CaCl2, MgSO4. 7H2 O and MgCl2.6H2 O. Peritoneal lavage fluid from each mouse is removed by syringe and placed in 5 mL plastic test tubes put on ice and volume is noted. Preparation of samples for evaluation by ELISA is as follows: Samples are centrifuged at 800 xg for 15 minutes; 1 mL of the supernatant is added to 8 mL ice cold methanol and kept at -70° C. overnight to precipitate protein; and samples are then centrifuged at 800 xg for 15 minutes, followed by a drying procedure in a Savant speed vac concentrator. The samples are reconstituted with 1 mL ice cold ELISA buffer and stored at -70° C. until assayed. The assay for eicosanoids (LTC4 and 6-keto-PGF1α) is performed according to conventional ELISA procedures.
Compounds to be tested orally are suspended in 0.5% Tween 80. Compounds to be tested intraperitoneally are suspended in 0.5% methylcellulose in 0.9% saline.
The total metabolite level in lavage fluid/mouse is calculated and the significance is determined by a one-way analysis of variance with LSD comparisons to control (p≤0.05). Drug effects are expressed as a percent change from control values.

inhibition at 10 µM (human platelet PLA2) [%] | IC50 ([1]; Table IV, read-out: IC50 HSF (human synovial fluid)) [µM] | inhibition at 10 µM ([1]; at 10 μM, + values given without explanation, read-out: % Inhibition HSF (human synovial fluid)) [%] | Compound | % Inhibition (carrageenan paw edema) [%] | ED50 LTC4 [2]
0 | 8.7 | 59 | COc1ccc(/C=C/C(=O)C2=C(O)COC2=O)cc1 [Example 6, (E)-4-Hydroxy-3-(3-(4-methoxyphenyl)-1-oxo-2-propenyl)-2 (5H)-furanone] | 31 | –
– | – | – | CC(C)Cc1ccc(C(C)C(=O)O)cc1 (centres unmarked) [Ibuprofen] | – | Not Active
